Source: paper PMC7824787, “Design, Synthesis and In Vitro Investigation of Novel Basic Celastrol Carboxamides as Bio-Inspired Leishmanicidal Agents Endowed with Inhibitory Activity against Leishmania Hsp90” (Biomolecules, 2021)

Columns and labels:
L. infantum amastigotes = assay: Antileishmanial activity on intramacrophage amastigotes of L. infantum; format: cell-based, Leishmania infantum
Protocol: Cell monolayers were then washed and incubated in the presence of test compounds for 72 h. Slides were fixed with methanol and stained with Giemsa. The percentage of infected macrophages in treated and non-treated cells was determined by light microscopy.

THP-1 = assay: Cytotoxicity on THP-1 (MTT); format: cell-based, human; conditions: Homo sapiens, THP-1; PMA-differentiated, 72 h, MTT; read-out: Healthy Cell Lines IC50, THP-1
Protocol: (§1) Cytotoxicity was evaluated on human microvascular endothelial cells (HMEC-1, provided by the Centers for Disease Control, Atlanta, GA, USA), on immortalized mouse C57Bl/6 bone marrow derived macrophages (BMDM) from wild type lineage (generated in the laboratories of Drs. Douglas Golenbock and Kate Fitzgerald, University of Massachusetts, Worcester, MA, USA) and on a human acute monocytic leukaemia cell line (THP-1).
(§2) HMEC-1 were maintained in MCDB 131 medium (Invitrogen, Milan, Italy) supplemented with 10% fetal calf serum (HyClone), 10 ng/mL of epidermal growth factor, 1 μg/mL of hydrocortisone, 2 mM glutamine and 20 mM HEPES buffer, at 37 °C in 5% CO2. BMDM were maintained in DMEM (Euroclone) medium supplemented with 10% fetal bovine serum (HyClone, Celbio, Milan, Italy), 2 mM glutamine, and 25 mM of HEPES buffer solution (Euroclone). THP-1 were maintained in RPMI supplemented with 10% heat-inactivated FCS, 50 µM 2-mercaptoethanol, 10 µM sodium pyruvate, 20 mM HEPES, and 2 mM glutamine. In order to achieve differentiation into macrophages, cells were treated with 10 ng/mL phorbol myristate acetate (PMA) for 72 h.
(§3) For the cytotoxicity assay, cells were seeded in 96 well flat bottom tissue culture clusters (Costar, New York, NY, USA) at the following concentrations: HMEC 10^5 cell/mL, BMDM at 10^6 cell/mL, THP1 at 5 × 10^5 cell/mL. After 24 h, cells were treated with serial dilutions of test compounds in a final volume of 200 µL/well. Cell proliferation was evaluated after 72 h using the MTT assay.
(§4) The absorbances were measured with a microplate spectrophotometer (Synergy 4-Biotek) at a test wavelength of 550 nm and a reference wavelength of 650 nm. The results are expressed as IC50 as the concentration inhibiting 50% of cell growth. Each IC50 value is the mean and standard deviation of at least three separate experiments performed in duplicate.

[1] = tested on: L. infantum promastigotes; assay: Antileishmanial activity on L. infantum promastigotes (MTT); format: cell-based; conditions: Leishmania infantum, 72 h, 23 °C, MTT, read-out: Leishmania Promastigotes IC50, L. infantum
Protocol: (§5) Promastigote stage of L. infantum (MHOM/TN/80/IPT1, kindly provided by Dr. M. Gramiccia and Dr. T. Di Muccio, ISS, Roma) and L. tropica (MHOM/SY/2012/ISS3130) were cultured in RPMI 1640 medium (EuroClone) supplemented with 15% heat-inactivated fetal calf serum (EuroClone, Milan, Italy), 20 mM HEPES, and 2 mM L-glutamine at 23 °C. The MTT (3-[4.5-dimethylthiazol-2-yl]-2.5-diphenyltetrazolium bromide) method was used to estimate the 50% inhibitory concentration (IC50), with some modifications. Compounds were dissolved in DMSO and then diluted with medium to achieve the required concentrations. Test compounds were placed in 96 wells round bottom microplates and seven serial dilutions made. Amphotericin B was used as the reference antileishmanial drug. Parasites were diluted in complete medium to 5 × 10^6 parasites/mL and 100 μL of the suspension was seeded into the plates and incubated at 23 °C for 72 h. Then 20 μL of MTT solution (5 mg/mL) was added into each well, after 3 h the plates were centrifuged, the supernatants discarded and the resulting pellets dissolved in 100 μL of lysing buffer consisting of 20% (w/v) of a solution of SDS (Sigma), 40% of N,N-dimethylformamide (Merck) in H2O. The absorbance of the obtained solutions was measured at a wavelength of 550 nm with a reference at 650 nm with a microplate spectrophotometer (Synergy 4-Biotek, Milan, Italy) and analyzed with the Gen5® software for data processing.
(§6) The results are expressed as IC50, the dose of compound that is necessary to inhibit cell growth by 50%; each IC50 value is the mean ± standard deviation of at least three separate experiments performed in duplicate.

L. tropica promastigotes = assay: Antileishmanial activity on L. tropica promastigotes (MTT); format: cell-based; conditions: Leishmania tropica, 72 h, 23 °C, MTT, read-out: Leishmania Promastigotes IC50, L. tropica
Protocol: as §5, §6

HMEC-1 = assay: Cytotoxicity on HMEC-1 (MTT); format: cell-based, human; conditions: Homo sapiens, HMEC-1; 72 h, MTT; read-out: Healthy Cell Lines IC50, HMEC-1
Protocol: as §1, §2, §3, §4

BMDM = assay: Cytotoxicity on BMDM (MTT); format: cell-based, mouse; conditions: Mus musculus, BMDM; 72 h, MTT; read-out: Healthy Cell Lines IC50, BMDM
Protocol: as §1, §2, §3, §4

LbHsp90 = LbHsp90 (Leishmania braziliensis, UniProt A4HL70); assay: In vitro inhibition of the ATPase activity of LbHsp90 (Malachite Green Phosphate Assay); format: biochemical; conditions: 7 μM LbHsp90, 27 °C, 60 min
LbHsp90, sequence (A4HL70 entry or part of it): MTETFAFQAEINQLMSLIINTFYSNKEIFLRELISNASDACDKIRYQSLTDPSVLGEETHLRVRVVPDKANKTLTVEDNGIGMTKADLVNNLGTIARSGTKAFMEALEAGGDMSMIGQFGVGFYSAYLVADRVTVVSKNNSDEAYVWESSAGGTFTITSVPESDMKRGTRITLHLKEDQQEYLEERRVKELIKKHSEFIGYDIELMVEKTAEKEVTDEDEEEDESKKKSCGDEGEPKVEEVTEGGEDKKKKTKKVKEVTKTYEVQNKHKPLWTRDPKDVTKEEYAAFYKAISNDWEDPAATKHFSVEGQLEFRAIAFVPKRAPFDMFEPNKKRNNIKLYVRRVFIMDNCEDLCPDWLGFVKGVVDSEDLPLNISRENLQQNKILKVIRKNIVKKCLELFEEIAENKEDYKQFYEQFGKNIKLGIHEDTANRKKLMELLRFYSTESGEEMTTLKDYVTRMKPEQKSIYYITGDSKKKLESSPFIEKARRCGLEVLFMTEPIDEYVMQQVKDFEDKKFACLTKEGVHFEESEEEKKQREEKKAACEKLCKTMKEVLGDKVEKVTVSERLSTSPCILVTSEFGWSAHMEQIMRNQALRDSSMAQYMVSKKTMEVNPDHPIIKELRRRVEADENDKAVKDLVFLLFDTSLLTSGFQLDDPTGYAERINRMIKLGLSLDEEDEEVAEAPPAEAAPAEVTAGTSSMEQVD
Excerpt: To evaluate in vitro the modulatory activity of CE, PR and CE caboxamides, a full-length recombinant Hsp90 from L. braziliensis (LbHsp90) was produced in E. coli BL21 DE3 harboring the pET28a_LbHsp90 coding for the C-terminal His-tagged target chaperone (genbank number: XP_001567804.1, full sequence is reported in Appendix B). Pratically, the plasmid pET28a_LbHsp90, kindly donated by professor J.C. Borges, was transformed in E. coli BL21 DE3 using the TransformAid Bacterial Transformation Kit (Thermo Fisher, Waltham, MA, USA). Subsequently, the obtained transformants were grown overnight in LB medium containing 30 μg mL^−1 kanamycin (LBkan30) and then inoculated in 1 L SB kan30 medium (Yeast extract 30 g L^−1, Tryptone 20 g L^−1, NaCl 10 g L^−1) at 37 °C and 220 rpm. When the OD600 reached 0.5–1, gene expression was induced by the addition of 2 mL of 1 M IPTG solution in water and the culture was shifted at 30 °C for 24 h. After cell harvesting by centrifugation (5000 rpm for 30 min), the cell pellet was resuspended in 20 mL of wash buffer (20 mM HEPES buffer, pH 7.0, 500 mM NaCl, 20 mM imidazole) and recombinant E. coli BL21DE3 cells were disrupted by ultrasonication. LbHsp90 was subsequently purified using a Nickel Sepharose 6 Fast Flow agarose resin (Ni-NTA) (GE Healthcare, Milan, Italy) as follows. Soluble protein fraction was separated from cell debris by centrifugation (10,000 rpm for 30min) after cell ultrasonication, and clear lysates were incubated with the Ni-NTA resin for 90 min at 4 °C under mild shaking and loaded onto a glass column (10 × 110 mm). The resin was then washed with 10mL of wash buffer and His-tagged LbHsp90 was eluted using a 3 step gradient (10 mL washing buffer containing 100, 200, and 300 mM imidazole, respectively) and dialyzed against 20 mM HEPES buffer (20 mM, pH 7.5), at 4 °C overnight. The protein content was measured using the Bio-Rad Protein Assay (Hercules, CA, USA) according to the Bradford method and the protein purity was verified by SDS-PAGE analysis (10% T, 2.6% C). It is worth noting that to avoid interferences with the assays described below, proteins were purified and conserved in HEPES buffer (20 mM, pH 7.5) in place of the standard PB-buffer. Reported data are the mean of two experiments run in duplicate.
Modulatory activity toward the ATPase cycle of LbHsp90 was determined using a Malachite Green Phosphate Assay Kit (Catalog Number MAK307, Sigma-Aldrich®, St. Louis, MO, USA). Analyses were run in a 96-well plate directly following the quantitative formation of a green complex between Malachite Green, molybdate, and free orthophosphate (Pi) produced by ATP hydrolysis catalyzed by the chaperone. Color formation from the reaction was measured on a plate reader at 620 nm. Briefly, the IC50 of CE and its derivatives were extrapolated from a set of dose-response curves obtained by calculating the amount of Pi produced by LbHsp90 in the presence of different compounds concentrations.
Reactions were run in HEPES buffer (20 mM, pH 7.5) containing 3 mM MgCl2 and 50 mM KCl in the presence of different compounds concentrations ([…]), LbHsp90 (7 μM) and ATP (25 mM) at 27 °C for 60 min. OD620 was measured 30 min after Malachite Green reactants addition.
LbHsp90 native activity was measured by conducting the reaction in the presence of just LbHsp90 and ATP and extrapolating the concentration of Pi obtained.
Three sets of control experiments, (1) ATP background hydrolysis, (2) compounds-related interferences and (3) protein-related background coloration, were run as follow: • (1) ATP (25 mM) incubated at 27 °C for 60 min • (2) Compounds (different concentrations) incubated with ATP (25 mM) at 27 °C for 60 min • (3) LbHsp90 (7 μM) at 27 °C for 60 min
The in vitro performances of CE, PR and the carboxamides 1–11 (Figure 4) as potential inhibitors of the Leishmania braziliensis Hsp90 were investigated using Sigma-Aldrich® Malachite Green Phosphate Assay Kit. […]

Row | Structure (SMILES) | IC50 (L. infantum amastigotes; Leishmania infantum, infected THP-1 macrophages, 72 h) [nM] | S.I. (selectivity index) (L. infantum amastigotes; ratio IC50 on THP-1 cell line / IC50 toward L. infantum amastigotes) | IC50 (THP-1) [nM] | IC50 [1] [nM] | IC50 (L. tropica promastigotes) [nM] | IC50 (HMEC-1) [nM] | IC50 (BMDM) [nM] | IC50 (LbHsp90) [nM] | melting point [°C]
1 | C[C@@H]1[C@H](O)[C@@H](C)/C=C/C=C/C=C/C=C/C=C/C=C/C=C/[C@H](O[C@@H]2O[C@H](C)[C@@H](O)[C@H](N)[C@@H]2O)C[C@@H]2O[C@](O)(C[C@@H](O)C[C@@H](O)[C@H](O)CC[C@@H](O)C[C@@H](O)CC(=O)O[C@H]1C)C[C@H](O)[C@H]2C(=O)O [AMP, amphotericin B, reference compound] | 180 ± 30 | >109 | > 20000 | 160 ± 50 | 170 ± 20 | > 20000 | > 20000 |  | 
2 | CC1=C(O)C(=O)C=C2C1=CC=C1[C@@]2(C)CC[C@@]2(C)[C@@H]3C[C@](C)(C(=O)NCCC45CCCN4CCC5)CC[C@]3(C)CC[C@]12C [compound 4, (2R,4aS,6aS,12bR,14aS,14bR)-N-(2-(hexahydro-1H-pyrrolizin-7a-yl)ethyl)-10-hydroxy-2,4a,6a,9,12b,14a-hexamethyl-11-oxo-1,2,3,4,4a,5,6,6a,11,12b,13,14,14a,14b-tetradecahydropicene-2-carboxamide] |  |  | 1890 ± 430 | 250 ± 80 | 200 ± 40 | 350 ± 160 | 2590 ± 710 | 48000 ± 3000 | 235.7 to 237
